According to patent US20020028938A1, “Prostaglandin endoperoxide H synthase biosynthesis inhibitors” (priority 1997, published 2002):

Row | SMILES | melting point [°C]
1 | Cc1cc(C)cc(-n2ncc(-c3ccc(S(C)(=O)=O)cc3)c(-c3ccc(F)cc3)c2=O)c1 [Example 170, 2-(3,5-Dimethylphenyl)-4-(4-fluorophenyl)-5-[4-(methylsulfonyl)phenyl]-3(2H)-pyridazinone] | 130 to 134
2 | CS(=O)(=O)c1ccc(-c2cnn(-c3ccc(C(F)(F)F)cc3)c(=O)c2-c2ccc(F)cc2)cc1 [Example 174, 2-(4-Trifluoromethylphenyl)-4-(4-fluorophenyl)-5-[4-(methylsulfonyl)phenyl]-3(2H)-pyridazinone] | 171 to 173
3 | Cc1ccc(-n2ncc(-c3ccc(S(C)(=O)=O)cc3)c(-c3ccc(F)cc3)c2=O)cc1 [Example 177, 2-(4-Methylphenyl)-4-(4-fluorophenyl)-5-[4-(methylsulfonyl)phenyl]-3(2H)-pyridazinone] | 190 to 192
4 | CS(=O)(=O)c1ccc(-c2cnn(-c3ccsc3)c(=O)c2-c2ccc(F)cc2)cc1 [Example 179, 2-(3-Thienyl)-4-(4-fluorophenyl)-5-[4-(methylsulfonyl)phenyl]-3(2H)-pyridazinone] | 200 to 202
5 | COc1ccc(-n2ncc(-c3ccc(S(C)(=O)=O)cc3)c(-c3ccc(F)cc3)c2=O)cc1F [Example 184, 2-(3-Fluoro-4-methoxyphenyl)-4-(4-fluorophenyl)-5-[4-(methylsulfonyl)phenyl]-3(2H)-pyridazinone] | 97 to 101
6 | CS(=O)(=O)c1ccc(-c2cnn(-c3ccc(S(N)(=O)=O)cc3)c(=O)c2-c2ccc(F)cc2)cc1 [Example 186, 2-[4-(Aminosulfonyl)phenyl]-4-(4-fluorophenyl)-5-[4-(methylsulfonyl)phenyl]-3(2H)-pyridazinone] | 213 to 216
7 | CS(=O)(=O)c1ccc(-c2cnn(-c3ccc(F)cc3)c(=O)c2COc2ccccc2)cc1 [Example 196, 2-(4-Fluorophenyl)-4-phenoxymethyl-5-[4-(methylsulfonyl)phenyl]-3(2H)-pyridazinone] | 42 to 75
8 | CC(C)(C)SCc1c(-c2ccc(S(C)(=O)=O)cc2)cnn(-c2ccc(F)cc2)c1=O [Example 197, 2-(4-Fluorophenyl)-4-(t-butylthiomethyl)-5-[4-(methylsulfonyl)phenyl]-3(2H)-pyridazinone] | 50 to 70
9 | CSc1ccc(-c2cnn(-c3ccc(F)cc3)c(=O)c2OC(C)C)cc1 [Example 199, 2-(4-Fluorophenyl)-4-(2-propoxy)-5-[4-(methylthio)phenyl]-3(2H)-pyridazinone] | 135 to 137
10 | CC(C)Oc1c(-c2ccc(S(C)(=O)=O)cc2)cnn(-c2ccc(F)cc2)c1=O [Example 200, 2-(4-Fluorophenyl)-4-(2-propoxy)-5-[4-(methylsulfonyl)phenyl]-3(2H)-pyridazinone] | 160 to 162
11 | CC(C)Oc1c(-c2ccc(S(C)(=O)=O)cc2)cnn(-c2cccc(Cl)c2)c1=O [Example 201, 2-(3-Chlorophenyl)-4-(2-propoxy)-5-[4-(methylsulfonyl)phenyl]-3(2H)-pyridazinone] | 134 to 136
12 | CC(C)Oc1c(-c2ccc(S(C)(=O)=O)cc2)cnn(-c2cccc(F)c2)c1=O [Example 202, 2-(3-Fluorophenyl)-4-(2-propoxy)-5-[4-(methylsulfonyl)phenyl]-3(2H)-pyridazinone] | 110 to 112
13 | CC(C)Oc1c(-c2ccc(S(C)(=O)=O)cc2)cnn(-c2cc(F)ccc2F)c1=O [Example 204, 2-(2,5-Difluorophenyl)-4-(2-propoxy)-5-[4-(methylsulfonyl)phenyl]-3(2H)-pyridazinone] | 161 to 164
14 | CS(=O)(=O)c1ccc(-c2cnn(-c3cccc(Cl)c3)c(=O)c2COC(=O)c2ccccc2)cc1 [Example 208, 2-(3-Chlorophenyl)-4-(benzoyloxymethyl)-5-[4-(methylsulfonyl)phenyl]-3(2H)-pyridazinone] | 50 to 70
15 | CS(=O)(=O)c1ccc(-c2cnn(CC(F)(F)F)c(=O)c2-c2ccc3c(c2)COC3=O)cc1 [Example 221, 2-(2,2,2-Trifluoroethyl)-4-(1-oxo-1,3-dihydro-2-benzofuran-5-yl)-5-[4-(methylsulfonyl)phenyl]-3(2H)-pyridazinone] | 237 to 239
16 | CC(C)(C)CCOc1c(-c2ccc(S(C)(=O)=O)cc2)cnn(CC(F)(F)F)c1=O [Example 280, 2-(2,2,2-Trifluoroethyl)-4-(3,3-dimethylbutoxy)-5-[4-(methylsulfonyl)phenyl]-3(2H)-pyridazinone] | 83 to 85

Results, then the compound that gave them:

Row | melting point [°C] | SMILES
17 | 192 to 195 | C=CCc1c(-c2ccc(S(C)(=O)=O)cc2)cnn(CC(F)(F)F)c1=O [Example 222, 2-(2,2,2-Trifluoroethyl)-4-(2-propenyl)-5-[4-(methylsulfonyl)phenyl]-3(2H)-pyridazinone]
18 | 175 to 180 | CC=C(C)c1c(-c2ccc(S(C)(=O)=O)cc2)cnn(CC(F)(F)F)c1=O [Example 223, 2-(2,2,2-Trifluoroethyl)-4-(2-buten-2-yl)-5-[4-(methylsulfonyl)phenyl]-3(2H)-pyridazinone]
19 | 242 to 244 | Cc1ccc(-c2c(-c3ccc(S(C)(=O)=O)cc3)cnn(-c3ccc(F)cc3)c2=O)cc1 [Example 229, 2-(4-Fluorophenyl)-4-(4-methylphenyl)-5-[4-(methylsulfonyl)-phenyl]-3(2H)-pyridazinone]
20 | 166 to 168 | CS(=O)(=O)c1ccc(-c2cnn(-c3ccc(F)c(F)c3)c(=O)c2Cc2ccccc2)cc1 [Example 233, 2-(3,4-Difluorophenyl)-4-benzyl-5-[4-(methylsulfonyl)phenyl]-3(2H)-pyridazinone]
21 | 149 to 150 | CC#Cc1c(-c2ccc(S(C)(=O)=O)cc2)cnn(-c2ccc(F)c(F)c2)c1=O [Example 238, 2-(3,4-Difluorophenyl)-4-(1-propynyl)-5-[4-(methylsulfonyl)phenyl]-3(2H)-pyridazinone]
22 | 245 to 248 | Cc1ccc(-c2c(-c3ccc(S(C)(=O)=O)cc3)cnn(-c3ccc(F)cc3)c2=O)cc1F [Example 250, 2-(4-Fluorophenyl)-4-(3-fluoro-4-methylphenyl)-5-[4-(methylsulfonyl)phenyl]-3(2H)-pyridazinone]
23 | 177 to 179 | CS(=O)(=O)c1ccc(-c2cnn(-c3ccc(F)c(F)c3)c(=O)c2Cc2ccc(F)c(F)c2)cc1 [Example 255, 2-(3,4-Difluorophenyl)-4-(3,4-difluorobenzyl)-5-[4-(methylsulfonyl)phenyl]-3(2H)-pyridazinone]
24 | 119 to 121 | CC(C)CCc1c(-c2ccc(S(C)(=O)=O)c(F)c2)cnn(-c2ccc(F)c(F)c2)c1=O [Example 258, 2-(3,4-Difluorophenyl)-4-(3-methylbutyl)-5-[3-fluoro-4-(methylsulfonyl)phenyl]-3(2H)-pyridazinone]
25 | 105 to 107 | CSc1cc(-n2ncc(-c3ccc(S(C)(=O)=O)cc3)c(-c3ccc(F)cc3)c2=O)ccc1F [Example 259, 2-[4-Fluoro-3-(methylthio)phenyl]-4-(4-fluorophenyl)-5-[4-(methylsulfonyl)phenyl]-3(2H)-pyridazinone]
26 | 179 to 181 | CS(=O)(=O)c1ccc(-c2cnn(CC(F)(F)F)c(=O)c2Oc2ccc(C#N)cc2)cc1 [Example 264, 2-(2,2,2-Trifluoroethyl)-4-(4-cyanophenoxy)-5-[4-(methylsulfonyl)phenyl]-3(2H)-pyridazinone]
27 | 163 to 165 | CS(=O)(=O)c1ccc(-c2cnn(CC(F)(F)F)c(=O)c2Oc2ccc(-c3ccccc3)cc2)cc1 [Example 268, 2-(2,2,2-Trifluoroethyl)-4-(4-phenylphenoxy)-5-[4-(methylsulfonyl)phenyl]-3(2H)-pyridazinone]
28 | 121 to 123 | CS(=O)(=O)c1ccc(-c2cnn(CC(F)(F)F)c(=O)c2OCc2ccccc2)cc1 [Example 270, 2-(2,2,2-Trifluoroethyl)-4-(phenylmethoxy)-5-[4-(methylsulfonyl)phenyl]-3(2H)-pyridazinone]
29 | 113 to 114 | CS(=O)(=O)c1ccc(-c2cnn(CC(F)(F)F)c(=O)c2OC2CCc3ccccc32)cc1 (stereo not drawn) [Example 276, 2-(2,2,2-Trifluoroethyl)-4-(1-indanyloxy)-5-[4-(methylsulfonyl)phenyl]-3(2H)-pyridazinone]
30 | 196 to 199 | CS(=O)(=O)c1ccc(-c2cnn(-c3ccc(F)c(F)c3)c(=O)c2Oc2ccc(Br)cc2)cc1 [Example 282, 2-(3,4-Difluorophenyl)-4-(4-bromophenoxy)-5-[4-(methylsulfonyl)phenyl]-3(2H)-pyridazinone]
31 | 108 to 111 | CS(=O)(=O)c1ccc(-c2cnn(CC(F)(F)F)c(=O)c2SCc2ccccc2)cc1 [Example 285, 2-(2,2,2-Trifluoroethyl)-4-phenylmethylthio-5-[4-(methylsulfonyl)phenyl]-3(2H)-pyridazinone]
32 | 186 to 189 | CC(C)(C)Sc1c(-c2ccc(S(C)(=O)=O)cc2)cnn(CC(F)(F)F)c1=O [Example 290, 2-(2,2,2-Trifluoroethyl)-4-(tert-butylthio)-5-[4-(methylsulfonyl)phenyl]-3(2H)-pyridazinone]
33 | > 260 | CS(=O)(=O)c1ccc(-c2cnn(CC(F)(F)F)c(=O)c2N)cc1 [Example 294, 2-(2,2,2-Trifluoroethyl)-4-amino-5-[4-(methylsulfonyl)phenyl]-3(2H)-pyridazinone]
34 | 110 to 113 | COCCCNc1c(-c2ccc(S(C)(=O)=O)cc2)cnn(CC(F)(F)F)c1=O [Example 295, 2-(2,2,2-Trifluoroethyl)-4-(3-methoxylpropylamino)-5-[4-(methylsulfonyl)phenyl]-3(2H)-pyridazinone]
35 | 134 to 139 | CS(=O)(=O)c1ccc(-c2cnn(CC(F)(F)F)c(=O)c2NC2CCCC2)cc1 [Example 296, 2-(2,2,2-Trifluoroethyl)-4-(cyclopentylamino)-5-[4-(methylsulfonyl)phenyl]-3(2H)-pyridazinone]
36 | 163 to 165 | COc1ccc(CCNc2c(-c3ccc(S(C)(=O)=O)cc3)cnn(CC(F)(F)F)c2=O)cc1OC [Example 298, 2-(2,2,2-Trifluoroethyl)-4-(3,4-dimethoxyphenethylamino)-5-[4-(methylsulfonyl)phenyl]-3(2H)-pyridazinone]
